Data set [1] relates to Rat hippocampal nerve cells. Put plainly: ionomycin-induced death of cultured rat hippocampal nerve cells (WST-8 cell survival rate). To be noted: for inhibition of cell death induced by ionomycin at a single concentration: each 0.1 μM, 3 μM ionomycin, FIGS. 6a and 6b.
Method: The solution was used after dilution to predetermined concentrations with distilled water for injection (JP, Otsuka Pharmaceutical) containing 1 mg/mL of bovine serum albumin (SIGMA). Rat type ghrelin (Peptide Institute) was used after dilution to predetermined concentrations with water for injection containing 1 mg/mL of bovine serum albumin. Other reagents used were L-15 culture medium, D-MEM/F-12 culture medium, MEM culture medium, Neuro Basal culture medium, B-27 supplement, horse serum, newborn calf serum, L-glutamine (all of the foregoing products of GIBCO), L-cysteine, ionomycin, calf serum albumin, DNase I (all of the foregoing products of SIGMA), glucose, viable cell count determination reagent SF (all of the foregoing products of Nacalai tesque), and papain (Worthington Biochemical).
Animals used were fetal rats on the 20th fetal day gestated in Wistar/ST definitively pregnant rats (15-18 days pregnant, Japan SLC).
Rat hippocampal nerve cells were isolated in accordance with the method of Hatanaka et al. (Hatanaka, H. and Tsukui, H., Dev. Brain. Res. 30(1986)47). Brains were removed from Wistar/ST fetal rats (20 fetal days), and soaked in cold L-15 medium. The meninges were ablated under microscope, and the hippocampus was cut out. Hippocampal tissue was transferred into a test tube containing the L-15 medium, and the test tube was centrifuged for 3 minutes at 700 rpm. Then, the supernatant was removed, and phosphate buffer (pH 7.2) containing papain (0.5 mg/mL), bovine serum albumin (0.2 mg/mL), cysteine (0.2 mg/mL), glucose (5 mg/mL) and DNase I (0.01%) was added, followed by incubating the mixture for 15 minutes at 37° C. Then, horse serum was added, and the mixture was centrifuged for 3 minutes at 700 rpm. Then, the supernatant was removed, D-MEM/F-12 medium was added, and the cells were dispersed by pipetting. After centrifugation for 5 minutes at 700 rpm, the dispersed cells were redispersed in D-MEM/F-12 medium containing 5% newborn calf serum and 5% horse serum, and inoculated in a polyethyleneimine-coated 48-well culture plate (Nunc) at a rate of 4×10^5 cells/cm^2. The cells were cultured in a culture incubator (37° C., 5% CO2-95% air). On the 2nd day of culturing, the culture medium was replaced by Neuro Basal medium containing 2 mM of glutamine and B-27 supplement. Then, the medium was replaced at intervals of 4 days.
Cells on the 14th day of culturing were used in experiments. The culture medium was replaced by a B-27-free MEM medium, and the cells were incubated for 30 minutes. Then, a solvent (dimethyl sulfoxide) and a test compound were added, and the system was incubated for 30 minutes (procedure 1). Then, 3 μM of ionomycin was added, and the mixture was incubated for 30 minutes (procedure 2). The culture medium was washed, and replaced by Neuro Basal medium containing B-27 supplement, and the system was cultured for 18 hours (procedure 3). In examining the effect of post-treatment, the solvent and the test compound were not added in procedure 1, but added 30 minutes after replacement of the medium in procedure 3.
Data set [2] in a line: influence on blood pressure and heart rate. The conditions noted are these: in vivo.
Data set [3] relates to rat ischemia-reperfusion cerebral infarction models. Put plainly: rat ischemia-reperfusion cerebral infarction model after transient obstruction of middle cerebral artery. Format: in vivo. How it is done:
Preventive and therapeutic effect of KP-102 in rat ischemia-reperfusion cerebral infarction models after transient obstruction of middle cerebral artery
The effect of the growth hormone secretion promoting substance was evaluated using ischemia-reperfusion cerebral infarction models, which are general pathological models of diseases involving degeneration or death of nerve cells, such as cerebral ischemia, cerebral infarction and cerebral edema. KP-102 was used as a typical example of the growth hormone secretion promoting substance.
KP-102 (synthetic product) was dissolved in physiological saline (JP) to a concentration of 24 μg/ml. Other reagents used were halothane (JP: Takeda Chem. Ind.), triphenyltetrazolium chloride (TTC, Nacalai tesque), Dulbecco PBS(−) (Nissui Pharmaceutical) and low viscosity dental impression silicone (XANTOPRENRL, imported by Hereus Dental Material, Osaka). A 1% TTC solution was prepared by dissolving TTC in an isotonic phosphate buffer solution (pH 7.4) which had been prepared by dissolving PBS(−) powder in distilled water.
Male Wistar rats (Charles River Japan, INC.), 9 weeks old and weighing about 300 g, were used as experimental animals.
Obstruction of the middle cerebral artery was performed in accordance with the method of Koizumi et al. (Jpn. J. Stroke (1986)8:1-8) and the method of Longa et al. (Stroke (1989)20:84-91). Anesthesia was performed with 2% halothane in a 30% oxygen/70% nitrous oxide mixed gas. A cannula for administration of a test material had been inserted into the right femoral vein, and the other end of the cannula delivered to the poll. After several hours or more, the animals were anesthetized again, and set in a supine position. A median incision of the neck was made, and connective tissues around the right common carotid artery, the internal carotid artery, and the external carotid artery were ablated. The distal end of the external carotid artery and the external carotid artery were ligated with a suture, and blood flow in the common carotid artery was blocked with a clip. The following procedure was performed, with measures for prevention of bleeding being taken: A small incision was made in the external carotid artery, and a plug comprising a 5 mm front end of a surgical 4-0 nylon thread coated with dental silicone was inserted toward the internal carotid artery as far as a site where a slight resistance was felt. As a result, the middle cerebral artery (hereinafter referred to as MCA) was occluded, at its point of origin, with the plug. The plug was fixed in the internal carotid artery with a clip. The incision wound was closed and anesthesia was stopped to awake the animals. Anesthesia was performed again 70 minutes after MCA occlusion, the plug was detached 75 minutes later to restore blood flow in MCA, and the end of the external carotid artery proximal to the incision site was closed for prevention of bleeding. Blood flow in the common carotid artery was restored 10 minutes later. The incision site of the skin was closed with a Michel needle, and the animals were recovered from anesthesia.
The cannula for administration of the test material was connected to a free moving device (TCS2-21, Tsumura). […]

Setting [4] is: KP-102 total 0.16 mg/kg i.v., 72 hours after reperfusion, FIG. 1.

The values that follow come from patent US20030100494A1, “Nerve protective drugs” (priority 1999, published 2003).

Non-standard residues stand in square brackets, D forms with d. Residues, ends and D or L forms follow the SMILES beside them. dTrp(2-Me) = Cc1[nH]c2ccccc2c1C[C@@H](N)C(=O)O; d2Nal = N[C@H](Cc1ccc2ccccc2c1)C(=O)O

Take `CC(C)(C)C(=O)N1CCC[C@H]1C(=O)N[C@H](Cc1ccc2ccccc2c1)C(=O)NCC(O)CN` (stereo partly drawn) [S-38855, N-(3-amino-2-hydroxypropyl)-2(R)-[1-(2,2-dimethylpropionyl)pyrrolidine-2(S)-carbonylamino]-3-naphthalen-2-yl-propionamide]: the “inhibition of cell death induced by ionomycin at a single concentration” value (from here on “inhibition … at a single concentration”) in data set [1] was “clear action of inhibiting cell death”.

On to `NCC(O)CNC(=O)[C@@H](Cc1ccc2ccccc2c1)NC(=O)CCN1C(=O)c2ccccc2CCc2ccccc21` (stereo partly drawn) [S-37555, N-[1(R)-(3-amino-2-hydroxy-propylcarbamoyl)-2-yl-ethyl]-3-(6-oxo-11,12-dihydro-6H-dibenzo[b,f]azocinn-5-yl)-propionamide], for which the “inhibition … at a single concentration” value in data set [1] is given as “clear action of inhibiting cell death”.

Regarding `Cc1[nH]c2ccccc2c1C[C@@H](NC(=O)[C@@H](N)Cc1c[nH]cn1)C(=O)N[C@@H](C)C(=O)N[C@@H](Cc1c[nH]c2ccccc12)C(=O)N[C@H](Cc1ccccc1)C(=O)N[C@@H](CCCCN)C(N)=O` [hexarelin, L-histidyl-2-methyl-D-tryptophyl-L-alanyl-L-tryptophyl-D-phenylalanyl-L-lysineamide, reference compound] (H-H[dTrp(2-Me)]AW[dF]K-NH2), in data set [1], the “inhibition … at a single concentration” value is recorded as “clear action of inhibiting cell death”.

With `CCC(CC)C(=O)N1CCC[C@@H]1C(=O)N[C@@H](Cc1ccc2ccccc2c1)C(=O)NCC(O)CN` (stereo partly drawn) [S-39100, N-(3-amino-2-hydroxypropyl)-2(S)-[1-(2-ethylbutyryl)pyrrolidine-2(R)-carbonylamino]-3-naphthalen-2-yl-propionamide], the “inhibition … at a single concentration” value in data set [1] is “clear action of inhibiting cell death”.

For `C[C@H](NC(=O)[C@@H](Cc1ccc2ccccc2c1)NC(=O)[C@@H](C)N)C(=O)N[C@@H](Cc1c[nH]c2ccccc12)C(=O)N[C@H](Cc1ccccc1)C(=O)N[C@@H](CCCCN)C(N)=O` [KP-102, D-alanyl-3-(2-naphthalenyl)-D-alanyl-L-alanyl-L-tryptophyl-D-phenylalanyl-L-lysineamide] (H-[dA][d2Nal]AW[dF]K-NH2), in data set [2], the “influence on blood pressure” value is “does not influence” and the “influence on heart rate” value was “does not influence”. Also, in data set [3] (setting [4]), the “cerebral infarct size, cortex” value is on record as “effect of shrinking the infarct was observed” and the “cerebral infarct size, medulla” value is given as “effect of shrinking the infarct was observed”. The “percent cerebral infarction volume for the entire cerebrum” value in data set [3] (vs control group, KP-102 total 0.16 mg/kg i.v. infusion beginning 30 minutes after MCA occlusion, 72 hours after reperfusion, FIG. 1, P<0.05 Mann-Whitney) is “significantly smaller”. Besides, the percent edema result in data set [3] (vs control group, KP-102 total 0.16 mg/kg i.v., 72 hours after reperfusion, FIG. 2, no significant differences, P=0.087) is “tendency toward suppression”. The “score of neurologic symptoms” value in data set [3] (vs control group, KP-102 total 0.16 mg/kg i.v., after reperfusion, normal score 33 points, FIG. 3, P<0.05) is listed as “significantly higher”. Besides, the “inhibition of cell death, compound applied after ionomycin treatment” value in data set [1] (applied 30 minutes after replacement of the ionomycin-treated culture medium, FIG. 4b) is “cell death inhibiting action was also confirmed”. In addition, in data set [1] (concentrations of 0.01 to 1 μM, dose-dependent, FIG. 4a), the “inhibition of cell death induced by 3 μM of ionomycin, compound applied 30 minutes before ionomycin” value is “inhibited cell death”.
